Laboratory results taken from article PMC3971658 (The Journal of General Physiology, 2014).
Marks after values point to notes of the source that are not given here. Where no end group is shown, it is not given here.

How the values were obtained:
Type in all cases: cell-based
Human Cav2.1 (Q1856E) = conditions: read-out: IBa inhibition; 50 µM
Human Cav2.3c (Y1761F) = conditions: 50 µM
Human Cav2.3d (Y1765F) = conditions: read-out: IBa inhibition; 50 µM
Human Cav2.3d (Y1761F) = conditions: 50 µM
Human Cav2.1 (L1852T) = conditions: read-out: IBa inhibition; 50 µM
[1] = system: c-Src / human Cav2.3c channel and GABABR
[2] = system: c-Src / human Cav2.1 channel and GABABR

Row | Compound | inhibition (Human Cav2.1 (Q1856E)) | IBa inhibition (Human Cav2.3c (Y1761F)) | inhibition (Human Cav2.3d (Y1765F)) | IBa inhibition (Human Cav2.3d (Y1761F)) | inhibition (Human Cav2.1 (L1852T)) | effect of pp60c-Src peptide on c-Vc1.1 and baclofen inhibition of IBa [1] | baclofen inhibition of IBa with wild-type c-Src overexpression or pp60c-Src peptide [2]
1 | NCC(CC(=O)O)c1ccc(Cl)cc1 (stereo not shown) [Baclofen, baclofen] | 47.9% | 14.6 ± 1.8 (8) ^c % | 28.9% | 21.9 ± 1.8 (11) ^c % | 50.6% |  | 
2 | pp60c-Src peptide: phosphorylated synthetic pp60c-Src peptide (521–533) (DYFTSTEPQYQPG; also: phosphorylated, site not given here; UniProt P12931 521-533, looked up, fragment) |  |  |  |  |  | The effect of K295R/Y527F c-Src was recapitulated | did not affect baclofen inhibition of IBa
